Experimental data as given in patent US9993002B2, “1,2,3-thiadiazol-5yl-urea derivatives, use thereof for regulating plant senescence and preparations containing these derivatives” (USTAV EXPERIMENTALNI BOTANIKY AV CR, V.V.I., priority 2014, dated 2018).
Marks after values point to notes of the source that are not given here.

What was measured:
Format in all cases: in vivo
[1] = test system: spring barley (Hordeum vulgare), malting variety Bojos; assay: Field experiment, spring barley, foliar spraying; details: 5 μM foliar; for Grain yield: control 7.653; for Number of grains/spike: control 23.49; for Thousand grain weight: control 45.85; for Number of tillers: control 4.61; for Number of spikes/m^2: control 700.4
From the text: The initial field experiments were done with spring barley (Hordeum vulgare), malting variety Bojos in field plots of University of Palacky in Olomouc. All field experiments were done according to criteria for Good Experimental Practices. Six repetitions (each 10 m^2) were used per one variant, sowing rate was 3.5 millions of germinated grains per hectare. Field trials were not treated by growth regulators and fungicides, except of applied compounds. Compounds 1-(2-methoxy-ethyl)-3-[1,2,3]thiadiazol-5-yl-urea and 1-(2-chloro-ethyl)-3-[1,2,3]thiadiazol-5-yl-urea were applied once in indicated time (Tillering, BBCH 23-25 or Inflorescence emergence, BBCH 51-53) by foliar spraying in concentration 5 μM. For each variant at least 50 plants were used to obtain morphology parameters. Statistical evaluation was executed in stat. program PAST v. 2.17c.

spring barley = assay: Field experiments, spring barley, years 2014 and 2015, foliar spray
Method: (§1) All field experiments were done according to criteria for Good Experimental Practices. Six repetitions (10 m^2 each) were used per one variant. Field trials were not treated by growth regulators and fungicides, except of applied compound 1-furfuryl-[1,2,3]thiadiazol-5-yl-urea. N-furfuryl-N′-1,2,3-thiadiazol-5-yl-urea was applied once at the precise time (extension growth BBCH 50), by foliar spray at a concentration of 25 μM. For each variant at least 50 plants were used to obtain morphology parameters. Statistical evaluation was executed in stat. program PAST v. 2.17c.
All field experiments were done according to criteria for Good Experimental Practices as described in example 17. N-furfuryl-N′-1,2,3-thiadiazol-5-yl-urea was applied once at the precise time (extension growth BBCH 50), by foliar spray at a concentration of 25 μM in a year 2014 and at a concentration of 5 μM in a year 2015. For each variant at least 50 plants were used to obtain morphology parameters. Statistical evaluation was executed in stat. program PAST v. 2.17c.

winter oilseed rape = assay: Field experiment, winter oilseed rape, foliar spray; details: 25 μM foliar spray, BBCH 50
Method: as §1

[2] = test system: winter wheat, Triticum aestivum cv. Hereward; assay: Drought stress tolerance of wheat plants; details: 100 nM aqueous solution, drought stress last 20 days, 30 days after planting; untreated 37%
Method: To investigate the effect of 1-(2-methoxy-ethyl)-3-[1,2,3]thiadiazol-5-yl-urea and 1-furfuryl-[1,2,3]thiadiazol-5-yl-urea to drought-induced senescence, seeds of winter wheat, Triticum aestivum cv. Hereward, were washed under running water for 24 hours and then sown into trays with perlite (30×40 cm) and soaked by water, or 100 nM aqueous solution of 1-(2-methoxy-ethyl)-3-[1,2,3]thiadiazol-5-yl-urea or 1-furfuryl-[1,2,3]thiadiazol-5-yl-urea. The trays were placed in a growth chamber at 25° C. with 8/16 hours light/dark cycle at intensity […]. Plants were under drought stress last 20 days. 30 Days after planting it was counted how many plants survived on individual trays.

[3] = test system: winter wheat, Triticum aestivum cv. Hereward; assay: Saline stress-induced senescence of wheat plants; details: 100 nM, 75 mM NaCl, assessed 25 and 30 days after planting
Method: To investigate the effect of compound 6 to saline-induced senescence seeds of winter wheat, Triticum aestivum cv. Hereward, were washed under running water for 24 hours and then sown to 1 L containers on perlite soaked with water or 100 nM water solution of […]. Containers were placed in the growth chamber at 25° C. with a 16/8 h light period at 50 μmol·m^−2·s^−1. Seven days after planting the plants were treated by 75 mM NaCl solution. Plants were allowed to grow and 25 and 30 days after planting the result was assessed.

[4] = Inflorescence emergence, BBCH 51-53
[5] = Tillering, BBCH 23-25, listed as compound 6

| Structure (SMILES) | Grain yield, % of control [1, 4] [%] | Number of grains/spike, % of control [1, 4] [%] | Thousand grain weight, % of control [1, 4] [%] | Grain yield [1, 4] [t/ha] | Number of grains/spike [1, 4] | Thousand grain weight [1, 4] [g] | Grain yield, % of control ([1]; Tillering, BBCH 23-25) [%] | Number of grains/spike, % of control ([1]; Tillering, BBCH 23-25) [%] | Number of spikes/m^2, % of control ([1]; Tillering, BBCH 23-25) | Number of tillers, % of control ([1]; Tillering, BBCH 23-25) | Thousand grain weight, % of control ([1]; Tillering, BBCH 23-25) [%] | Number of tillers ([1]; Tillering, BBCH 23-25) | Grain yield ([1]; Tillering, BBCH 23-25) [t/ha] | Number of grains/spike ([1]; Tillering, BBCH 23-25) | Thousand grain weight ([1]; Tillering, BBCH 23-25) [g] | Number of spikes/m^2 ([1]; Tillering, BBCH 23-25) | plants survived [2] [%] | also measured |
| --- | --- | --- | --- | --- | --- | --- | --- | --- | --- | --- | --- | --- | --- | --- | --- | --- | --- | --- |
| O=C(NCCCl)Nc1cnns1 [Compound 65, 1-(2-Chloro-ethyl)-3-[1,2,3]thiadiazol-5-yl-urea] | 109.7 | 102.9 | 100.2 | 8.398 | 24.17 | 45.96 | 109.3 | 103.9 | 109.2* % | 109.2% | 99.0 | 5.0 | 8.362 | 24.42 | 45.35 | 764.8* | – | Number of spikes/m^2, % of control ([1]; Tillering, BBCH 23-25, listed as compound 65): 109.2% |
| O=C(NCc1ccco1)Nc1cnns1 [Compound 84, N-furfuryl-N′-1,2,3-thiadiazol-5-yl-urea] | – | – | – | – | – | – | – | – | – | – | – | – | – | – | – | – | 71 | WTK, % of control (spring barley; Year 2014, 25 μM foliar spray): 100.06%; Seed yield (spring barley; Year 2014, 25 μM foliar spray, control 7.65): 8.02 t/ha; grains per ear (spring barley; Year 2014, 25 μM foliar spray, control 23.5): 24.6; WTK (spring barley; Year 2014, 25 μM foliar spray, control 45.85): 45.88 g; Seed yield (spring barley; Year 2015, 5 μM foliar spray, control 7.01): 7.49 t/ha; WTK (weight of a thousand kernels) (winter oilseed rape; control 4.35): 4.8 g; Seed yield (winter oilseed rape; control 4.994): 6.038 t/ha; WTK, % of control (winter oilseed rape; listed as Comp. 84): 110.3% |
| COCCNC(=O)Nc1cnns1 [Compound 6, 1-(2-methoxy-ethyl)-3-[1,2,3]thiadiazol-5-yl-urea] | 103.6 | 99.5 | 102.0 | 7.927 | 23.37 | 46.77 | 111.3 | 103.3 | 110.3* % | 115.7* % | 102.9 | 5.3* | 8.517 | 24.27 | 47.18 | 772.4* | 82 | effect on saline stress-induced senescence (in words) [3]: significantly delays stress-induced senescence; Number of spikes/m^2, % of control [1, 5]: 110.3%; Number of tillers, % of control [1, 5]: 115.7% |
